Source: US8106062B1, “Calcium channel blockers” (Diakron Pharmaceuticals, Inc., priority 2003, dated 2012)

Columns and labels:
[1] = biological target: T1, T-type calcium channels (α1G) (Homo sapiens, UniProt O43497); assay: Patch-clamp assay for T-channel blockage in HEK cells; format: cell-based; conditions: time course of T-channel blockage, 500 nM and 1 uM, preliminary numbers
T1 construct: expressed in transfected cells
Protocol: Specifically, individual HEK cells were tested in vitro using a patch-clamp assay for T-channel blockage. Tests were performed at concentrations of 500 nM and 1 uM, and the time course of the blockage was followed for a period of several minutes.
In the past, patch clamp assays for T-channel activity would measure inhibition of calcium-ion-mediated current over the course of only a few minutes, e.g., 2, 3, or 5 minutes. […] The assays described herein can be used to differentiate between conventional-type T-channel blockers, which usually show a time constant of blockage of a few seconds, and the long-acting T-channel blockers, which show time constants between 1 minute and 2, 4, 5, 10 or more minutes. It is the latter group of compounds that is particularly interesting and useful in the present invention.
T-type calcium channels (α1G) were stably expressed in HEK293 cells and maintained at 37° C. in DMEM. Cells were released from dishes using trypsin and EGTA or Accutase and studied within 4 hours of isolation. Individual cells were placed on the stage of an inverted microscope and patched with pipettes pulled from aluminasilicate glass capillary tubes, which had resistances of 0.8-1.5 Mohm. Currents were recorded using an Axopatch 200 (Axon Instruments, Inc.) and pClamp data acquisition software (8.1). The pipette solution contained (in mM): KCl 130, EGTA 11, HEPES 10, MgATP 5, pH=7.4. The bath solution contained (in mM): NaCl 140, CaCl2 1, HEPES 10, pH=7.4. Test compounds were diluted into bath solution to the desired concentration (100 nM-10 μM) from a stock solutions (3 or 10 mM in DMSO). Current measurements were made at 20-23° C. Cells were held at −110 mV in order to maximize occupancy in the closed state and depolarized for 100 ms to various potentials. Currents were capacity corrected using 16-64 subthreshold responses (voltage steps of 10 or 20 mV) and leak subtracted, based on linear interpolation between the current at the holding potential and 0 mV. Cells were moved from a control chamber to a chamber with test compound and the effect of the drug was assessed using a voltage clamp protocol that stepped to −30 mV for 100 ms from a holding potential of −110 mV once every 5 s. After each 10-13 minutes, the train protocol was interrupted and a full current voltage relationship obtained. In general for each compound, four cells were studied for a minimum of 13 minutes, two in drug at 500 nM and two at 1 μM. In some cases other concentrations were also studied. Data were analyzed using Matlab (Mathworks, Natick, Mass.). Drug efficacy was estimated using the relationship: Blocked Fraction=[Drug]/(IC50+[Drug])
The time course of block by drug was fit to a single exponential function: Peak Current=A*exp(−t/τ)+B where A is the initial amplitude of the current, B the final level, t the time after the cell was exposed to drug, and τ, the time constant, i.e. the time it took for the current to be reduced to within 1/e of its final value, B. In general, modification τs are influenced both by drug on rate and off rate, although washout was achievable for only one compound, so off rates are so slow (small) that T can be taken to essentially represent 1/kon. For some compounds despite the presence of the drug in the chamber, modification occurred with a delay. This was quantified from the time modification was first observed. […]

[2] = tested on: spontaneously hypertensive rats; assay: Systolic blood pressure (tail cuff) in spontaneously hypertensive rats after IV tail injection; format: in vivo, rat; conditions: SHR
Protocol: In addition to the referenced in vitro studies, in vivo studies have also been conducted. The in vivo hypertension model used here involves administration of compound to spontaneously hypertensive rats through IV tail injection of compound. Systolic blood pressure is then measured using a tail cuff.
Fifteen male spontaneously hypertensive rats (SHR) were used in these studies. The animals were 12 weeks old at arrival and 15 weeks old at the start of study. The animals were divided into five groups, with three animals in each group. The starting, baseline systolic blood pressure for all animals included in the study was 190-220 mmHg. The animals were housed in contact bedding. They were fed Purina 5008. Six days after arrival, the animals were trained in the blood pressure apparatus for four days before the start of the study.
Compounds were administered to the animals by tail vein injection. Dose levels were 0.5 mL. In each study, one group of animals served as control, while the others were injected with a dosage of a compound.
The study was conducted using the schedule set forth below: […]

[3] = tested on: spontaneously hypertensive rats; conditions: 30 mg/Kg oral, cited from earlier work
[4] = multiple dose study, three injections spaced about 25 hours apart, FIG. 2
[5] = single dose 20 mg/Kg, IV tail injection, FIG. 1

T1 sequence (O43497 whole entry): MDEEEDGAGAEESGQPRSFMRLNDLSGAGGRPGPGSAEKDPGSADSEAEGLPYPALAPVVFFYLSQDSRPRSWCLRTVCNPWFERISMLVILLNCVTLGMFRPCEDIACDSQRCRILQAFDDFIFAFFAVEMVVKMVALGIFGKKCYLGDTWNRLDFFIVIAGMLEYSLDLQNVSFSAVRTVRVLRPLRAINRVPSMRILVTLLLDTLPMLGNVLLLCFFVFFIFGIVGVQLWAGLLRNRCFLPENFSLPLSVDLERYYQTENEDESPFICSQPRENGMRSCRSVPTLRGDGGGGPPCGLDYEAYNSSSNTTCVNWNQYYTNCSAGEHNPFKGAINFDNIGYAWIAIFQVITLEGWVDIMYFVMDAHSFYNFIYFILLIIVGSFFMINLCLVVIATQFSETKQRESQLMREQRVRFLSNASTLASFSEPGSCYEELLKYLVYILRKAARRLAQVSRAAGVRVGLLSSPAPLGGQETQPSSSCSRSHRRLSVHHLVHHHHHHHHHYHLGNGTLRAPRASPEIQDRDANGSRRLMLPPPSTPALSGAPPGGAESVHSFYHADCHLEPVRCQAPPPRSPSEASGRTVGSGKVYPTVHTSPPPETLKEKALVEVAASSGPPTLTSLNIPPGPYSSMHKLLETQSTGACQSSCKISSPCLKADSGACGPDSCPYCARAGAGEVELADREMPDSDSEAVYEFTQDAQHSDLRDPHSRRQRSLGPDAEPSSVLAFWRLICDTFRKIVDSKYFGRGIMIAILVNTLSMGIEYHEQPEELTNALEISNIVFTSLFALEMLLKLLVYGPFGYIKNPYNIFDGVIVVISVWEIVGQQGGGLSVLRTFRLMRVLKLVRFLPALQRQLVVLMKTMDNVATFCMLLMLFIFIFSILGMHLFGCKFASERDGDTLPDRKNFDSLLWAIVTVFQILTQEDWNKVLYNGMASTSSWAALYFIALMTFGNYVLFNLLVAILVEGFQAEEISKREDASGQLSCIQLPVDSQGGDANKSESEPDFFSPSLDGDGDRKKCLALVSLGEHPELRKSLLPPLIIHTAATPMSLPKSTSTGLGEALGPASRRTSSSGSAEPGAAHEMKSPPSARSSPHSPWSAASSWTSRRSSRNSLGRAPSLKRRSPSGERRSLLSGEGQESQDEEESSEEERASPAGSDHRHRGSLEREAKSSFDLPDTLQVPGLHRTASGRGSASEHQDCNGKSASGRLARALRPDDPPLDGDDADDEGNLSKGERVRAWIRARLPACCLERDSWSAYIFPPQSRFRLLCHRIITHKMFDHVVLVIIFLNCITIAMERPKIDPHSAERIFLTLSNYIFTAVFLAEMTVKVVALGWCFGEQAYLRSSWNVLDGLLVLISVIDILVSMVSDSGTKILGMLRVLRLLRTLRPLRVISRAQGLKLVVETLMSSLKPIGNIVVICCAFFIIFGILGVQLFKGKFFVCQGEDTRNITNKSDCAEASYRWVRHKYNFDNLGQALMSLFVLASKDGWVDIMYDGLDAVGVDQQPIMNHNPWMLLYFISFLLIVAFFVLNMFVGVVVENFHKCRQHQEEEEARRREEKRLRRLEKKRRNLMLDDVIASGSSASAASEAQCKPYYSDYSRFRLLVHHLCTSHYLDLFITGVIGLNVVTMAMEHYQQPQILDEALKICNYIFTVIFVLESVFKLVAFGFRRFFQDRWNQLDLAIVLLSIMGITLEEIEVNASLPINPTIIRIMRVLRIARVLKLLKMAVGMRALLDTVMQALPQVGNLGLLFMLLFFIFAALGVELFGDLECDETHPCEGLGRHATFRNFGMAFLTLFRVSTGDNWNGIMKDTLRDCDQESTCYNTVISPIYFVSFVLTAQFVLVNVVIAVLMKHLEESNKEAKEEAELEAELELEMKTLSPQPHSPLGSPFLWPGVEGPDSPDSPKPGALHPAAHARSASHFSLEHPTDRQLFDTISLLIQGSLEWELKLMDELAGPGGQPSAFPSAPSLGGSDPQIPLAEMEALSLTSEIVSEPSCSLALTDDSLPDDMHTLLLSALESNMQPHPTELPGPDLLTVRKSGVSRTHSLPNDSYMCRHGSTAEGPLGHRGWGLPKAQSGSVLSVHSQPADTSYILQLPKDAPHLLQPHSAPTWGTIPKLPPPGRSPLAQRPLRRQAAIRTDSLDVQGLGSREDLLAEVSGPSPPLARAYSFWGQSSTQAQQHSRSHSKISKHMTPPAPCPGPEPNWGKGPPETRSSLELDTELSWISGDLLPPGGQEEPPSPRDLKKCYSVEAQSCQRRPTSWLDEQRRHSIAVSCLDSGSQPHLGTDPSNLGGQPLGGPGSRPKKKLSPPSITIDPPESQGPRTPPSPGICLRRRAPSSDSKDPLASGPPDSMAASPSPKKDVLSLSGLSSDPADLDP

## CCCCCCCCCCCCCCCc1cccc(OC(C)C)c1C1C(C(=O)OCC)=C(C)NC(=S)N1C(=O)CC (centres unmarked) [PPK51, 1,2,3,4-tetrahydro-6-methyl-4-[2-isopropoxy-6-pentadecylphenyl]-3-(1-oxo-propyl)2-thioxo-5-pyrimidine carboxylic acid ethyl ester]
[1]
  Time constant: 13 min

## CCCCCCCCCCCCCCCc1cccc(OCC)c1C1C(C(=O)OCC)=C(C)NC(=S)N1C(=O)CC (centres unmarked) [PPK50, 1,2,3,4-tetrahydro-6-methyl-4-[2-ethoxy-6-pentadecylphenyl]-3-(1-oxo-propyl)2-thioxo-5-pyrimidine carboxylic acid ethyl ester]
[1]
  Time constant: 10 min

## CCCCCCCCCCCCCCCc1cccc(OC(C)C)c1C1C(C(=O)OC)=C(C)NC(C)=C1C(=O)OC [PPK5, dimethyl 1,4-dihydro-4-(2′-isopropoxy-6′-pentadecylphenyl)-2,6-dimethyl-3,5-pyridine dicarboxylate]
[1]
  Time constant: 8 min
[2]; [4]
  additional blood pressure drop after the second injection: ~12 mmHg
  blood pressure drop after first injection: about 55 mmHg
[2]; single dose 20 mg/Kg, IV tail injection
  time systolic pressure remained at the reduced level: > 24 h
[2]; [5]
  systolic pressure drop in the first 5 hours: about 48 mmHg
  systolic pressure drop in the first 10 hours: about 55 mmHg

## 3,6-dihydro-4-methyl-6-[2-ethoxy-6-pentadecylphenyl]-2-oxo-1,5-(2H)-pyrimidinedicarboxylic acid 1-ethyl 5-isopropyl diester [PPK35]
[1]
  Time constant: 10 min

## COCC(=O)O[C@]1(CCN(C)CCCc2nc3ccccc3[nH]2)CCc2cc(F)ccc2[C@@H]1C(C)C [Mibefradil]
[3]; FIG. 1
  systolic blood pressure drop in the first 5 hours: about 85 mmHg
  systolic blood pressure recovery by the end of 24 hours: about 45 mmHg
[3]; FIG. 2
  rapid drop of blood pressure: 85 mmHg
  recovery of blood pressure within 24 hours of administration: more than 50%

## CCCCCCCCCCCCCCCc1cccc(OC)c1C1NC(=O)NC(C)=C1C(=O)OCC (centres unmarked) [PPK22, 5-ethoxycarbonyl-4-(2-methoxy-6-pentadecylphenyl)-6-methyl-3,4-dihydropyrimidin-2(1H)-one]
[1]
  Time constant: 1 min
